Laboratory results from patent US12319967B2, “Methods and compositions for diagnosing and treating prostate cancer based on long noncoding RNA overlapping the LCK gene that regulates prostate cancer cell growth” (University of Virginia Patent Foundation, priority 2019, dated 2025).

Key:
HULLK = assay: qPCR of HULLK (LCK E11, LCK 3'UTR) in cytoplasmic and nuclear fractions of LNCaP cells; type: cell-based, human; conditions: 1 nM R1881, 24 hrs
Experimental: FIGS. 3A and 3B illustrate the results of studies designed to characterize HULLK. […] LNCaP cells were seeded for 48 hrs and treated with 1 nM R1881 for 24 hrs. RNA was collected and cDNA was synthesized using strand-specific primers. qPCR was performed with two independent LCK primer sets that amplify HULLK, n=3. […] LNCaP cells were seeded for 48 hrs and treated with 1 nM R1881 for 24 hrs. Whole cell lysates were separated into cytoplasmic and nuclear fractions by centrifugation. RNA was collected from each fraction and cDNA was synthesized using the iScript cDNA synthesis kit. qPCR was performed with two independent LCK primer sets that amplify HULLK, and cytoplasmic and nuclear control genes, n=3.
Some lncRNAs show preferential accumulation in the cytoplasm or nucleus, while other lncRNAs are equally expressed in both compartments. To determine the intracellular localization of HULLK, total RNA was collected to synthesize cDNA from cytoplasmic and nuclear fractions of LNCaP cells starved of hormone or exposed to 1 nM R1881 for 24 hrs and carried out qPCR with LCK E11 and LCK 3′UTR primers to amplify HULLK.

[1] = system: LNCaP, C4-2, and Rv1 cells; assay: CyQuant growth assay 7 days after viral transduction; type: cell-based, human; conditions: 0.05 nM R1881; LNCaP, C4-2, and Rv1 cells; day 7
Description: FIG. 5A illustrates the gene structure of LCK and location of each shRNA targeting LCK. MISSION shRNAs targeting human LCK (NM_005356) and the pLKO vector control were purchased from ThermoFisher. Each shRNA was validated for efficiency of LCK or HULLK knockdown in Jurkat and PCa cells by qPCR. (C) The results of CyQuant Assay measuring DNA content as a surrogate for cell number 7 days after shRNA transduction is shown in FIG. 5C. Growth was compared to untreated empty vector control and the values were averaged across biological replicates. Error bars represent standard error of the mean. The relative effect of four independent shRNAs on cell growth in LNCaP, C42, and Rv1 cells in the absence or presence of 0.05 nM R1881, n=3. FIG. 5D plots the data for the relative effect of HULLK overexpression on cell growth in LNCaP, C42, and Rv1 cells in the absence or presence of 0.05 nM R1881, n=3. Statistical analysis was performed using ANOVA and Tukey test.
CyQuant Growth Assays: Assay was performed as previously described (18). Briefly, shRNA or pLKO control virus was added to 1 μg/ml fibronectin-coated 96 well plates. Cells were plated in RPMI-1640 plus 5% CSS with vehicle, 0-0.05 nM R1881, and/or 10 μM Enzalutamide (Selleck Chemicals). Quantification was performed on Day 7 using a BioTek Synergy 2 plate reader.
To explore the functional role of HULLK in PCa, the effects of HULLK knockdown on PCa cell growth was examined. LNCaP, C4-2, and Rv1 cells were transduced with lentiviral particles expressing four independent shRNAs specific for LCK or pLKO empty vector control in the presence or absence of 0.05 nM R1881. Two shRNAs were targeting the carboxy-terminal of LCK (shLCK-3 and shLCK-4) and should decrease HULLK levels; and two shRNAs were directed toward the amino-terminal (shLCK-1 and shLCK-2) and should not affect HULLK expression (FIG. 5A). […] As a control, all four shRNAs efficiently knocked LCK down 60-90% in Jurkat cells. Seven days following viral transduction, cellular growth was measured using CyQuant, which uses DNA content as a surrogate for cell number. In the absence of hormone, the four shRNAs had no dramatic effects on growth in LNCaP or C4-2 cells (FIG. 5C).
The complement experiment of evaluating the effects of overexpressing HULLK on cell growth was also performed. LNCaP, C4-2, and Rv1 cells were transduced with lentivirus expressing either vector or HULLK constructs in the presence or absence of 0.05 nM R1881, and proliferation was calculated seven days following viral transduction.

## C[C@]1(O)CC[C@H]2[C@@H]3CCC4=CC(=O)CCC4=C3C=C[C@@]21C [R1881]
HULLK; cytoplasmic fraction
  hormone increase of LCK 3'UTR transcript levels: ~7.6 fold
  hormone increase of LCK E11 transcript levels: approximately 5.3 fold
HULLK; nuclear fraction
  nuclear transcript amounts (LCK E11, LCK 3'UTR) in response to androgens: not influenced by androgens
[1]
  cell growth of vector-expressing control cells exposed to R1881: expected increase in cell growth
